This experiment relates to soy. The note with it: in-furrow, five grams per acre, versus check; for average soybean seed weight per pot: FIG. 49.

From the text: The Generate was applied at a rate one pint per acre. The remaining compositions were applied at a rate of five grams per acre. The soy was planted in May and harvested in October, with fertilizer applications in June and July.

As to nickel ammonium citrate, the “average soybean seed weight per pot” value was “increase seed weight over the check”.

In the case of nickel lactate, the “average soybean seed weight per pot” value was “increase seed weight over the check”. Moreover, under “FIG. 48”, the “total average soybean seed weight” value is given as “increase total average soybean seed weight above the check”.

The values are drawn from patent US20200187505A1, “SEED, SOIL, AND PLANT TREATMENT COMPOSITIONS” (RALCO NUTRITION, INC., priority 2017, published 2020).
